Square brackets hold non-standard residues; d marks the D form. Ends that are not written are not given here. Peptide text beside a SMILES is read from it.
target: T1, streptavidin (Streptomyces avidinii, UniProt P22629); test: Cy5-streptavidin binding on HotSpot discovery array, 5-mer L-peptide library; conditions: 5-mer L-peptide library array, Cy5-streptavidin; from average of three arrays
T1 construct: purchased GE Healthcare (Little Chalfont, UK)
Summary of the method: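 Array of 2,476,099 5-mer peptides (19 amino acids, no cysteine) with Gly-Ser linkers, probed overnight at 4 °C with 0.5 µg/ml Cy5-streptavidin in Tris pH 7.4 buffer containing casein or BSA plus Tween-20. Cy5 fluorescence read at 635 nm; peptides selected by signal-to-background >4 across three arrays.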

T1 sequence (P22629 25-183): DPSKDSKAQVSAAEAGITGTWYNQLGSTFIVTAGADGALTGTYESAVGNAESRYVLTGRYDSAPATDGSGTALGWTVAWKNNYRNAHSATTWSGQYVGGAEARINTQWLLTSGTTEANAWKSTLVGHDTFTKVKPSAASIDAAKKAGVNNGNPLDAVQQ

| Molecule | S/B (signal to background ratio) |
| --- | --- |
| YHPQN | 176.5 |
| YHPQT | 25.8 |
| YHPQY | 49.3 |
| YIHPQ | 131.4 |
| YLHPQ | 152.2 |
| YMHPQ | 181.7 |
| YNHPQ | 193.0 |
| YPHPQ | 190.5 |
| YQHPQ | 172.3 |
| YRHPQ | 185.8 |
| YSHPQ | 171.8 |
| YTHPQ | 174.6 |
| YVHPQ | 145.8 |
| YWHPM | 54.2 |
| YWHPQ | 148.0 |
| YYHPQ | 190.0 |

same assay, conditions: 5-mer L-peptide library array, Cy5-streptavidin; from the average of three arrays

| Molecule | S/B (signal to background ratio) |
| --- | --- |
| YHPQM | 77.9 |
| YHPQQ | 76.2 |
| YLHPM | 70.7 |
| YPHPM | 98.4 |
| YQHPM | 84.6 |
| YRHPM | 71.5 |
| YSHPM | 69.2 |

same assay, conditions: 5-mer L-peptide library, from the average of three arrays

| Molecule | S/B (signal to background ratio) |
| --- | --- |
| YWTDG [L-amino acid 5-mer array peptide] | 4.7 |

same assay, conditions: average of three arrays, L-peptide 5-mer library

| Molecule | S/B (signal to background ratio) |
| --- | --- |
| YWTDG [L-amino acid 5-mer array peptide] | 4.7 |

same assay, conditions: signal to background ratio; 5-mer L-peptide library array, Cy5-streptavidin

| Molecule | S/B |
| --- | --- |
| YHPQL | 6.4 |
| YRGHP | 5.3 |

target: T1, streptavidin; test: SPR analysis of peptide binding to immobilized streptavidin (Biacore X100); conditions: SPR Kd versus EWVHPQFEQKAK
Method: SPR analysis of peptide binding to streptavidin was performed with streptavidin immobilized on a chip and peptides in solution (see Materials and Methods).
Surface Plasmon Resonance (SPR) experiments were performed using a Biacore X100 instrument (GE Healthcare). 60 µl of 100 µg/ml streptavidin in 10 mM Na-acetate (pH 5.0) was immobilized to flow cell 2 (Fc2) of a sensor chip CM5 (GE Healthcare) using the Amine Coupling Kit (GE Healthcare) at 20 °C for 6 min. Peptide stock solutions were prepared at 5 or 10 mM in H2O and diluted in HBS-EP+ (GE Healthcare) buffer. Peptide binding was performed in a multiple kinetics mode using HBS-EP+ as a running buffer and 0.2 M NaCl, 10 mM NaOH, or 10 mM HCl-glycine (pH 1.7) as the regeneration buffer. Binding kinetics parameters were calculated using Biacore X100 software.

| Molecule | fold improvement of Kd over the HPQ peptide also developed in this study [fold] |
| --- | --- |
| AFPDYLAEYHGG-NH2 [NH2-AFPDYLAEYHGG-amide] | 100 |

same assay, conditions: SPR Kd versus Strep-tag II HPQ

| Molecule | fold improvement of Kd over Strep-tag II HPQ |
| --- | --- |
| AFPDYLAEYHGG-NH2 [NH2-AFPDYLAEYHGG-amide] | 1,000 fold |

same assay, conditions: SPR sensorgrams, immobilized streptavidin

| Molecule | type of SPR binding kinetics |
| --- | --- |
| NC(=O)CC[C@@H]1NC(=O)[C@H](Cc2c[nH]c3ccccc23)NC(=O)[C@H]2CCCN2C(=O)[C@H](CCC(N)=O)NC(=O)[C@H](CC(N)=O)NC1=O [NQpWQ (head-to-tail cyclic)] (cyclo(NQ[dP]WQ)) | fast on/fast off |
| EWVHPQFEQKAK-NH2 [NH2-EWVHPQFEQKAK-amide] | fast on/fast off |
| H-GNSFDDWLASKG-NH2 | irreversible binding kinetics |
| SAWSHPQFEK [NH2-SAWSHPQFEK-COOH, reference compound] | fast on/fast off |

same assay, conditions: SPR, streptavidin amine-coupled to CM5 chip, peptides in HBS-EP+; steady-state affinity for fast on/fast off peptides, otherwise 1:1 binding model

| Molecule | equilibrium dissociation constant (Kd) |
| --- | --- |
| H-GNSFDDWLASKG-NH2 | irreversible binding |

same assay, conditions: peptide concentrations of ≤2 mM

| Molecule | binding in SPR |
| --- | --- |
| NC(=O)CC[C@H](NC(=O)[C@H](Cc1c[nH]c2ccccc12)NC(=O)[C@H]1CCCN1C(=O)[C@H](CCC(N)=O)NC(=O)[C@@H](N)CC(N)=O)C(=O)O [NH2-NQpWQ-COOH] (H-NQ[dP]WQ-OH) | no measurable binding |

target: T1, streptavidin; test: Cy5-streptavidin binding on cyclic discovery array, paired cyclic/linear 5-mer L/D-peptides; conditions: Cy5-SA, three independent replicates on the same array, cyclic vs linear features
Description: To identify cyclic peptide binders to streptavidin, Cy5-SA was bound to an array library of 388,962 5-mer L/D-peptides. The pentameric peptides were composed of a 4-mer peptide synthesized with a combination of uncharged L- and D-amino acids and a γ-Glu: this residue enabled synthesis of both head-to-tail cyclic and linear peptides, respectively, for each peptide through either allyl ester or t-butyl ester C-terminal protection (see Materials and Methods for amino acid composition and cyclization protocol). The paired cyclic and linear array features were spatially positioned side-by-side to control for potential variations in cyclization yield for each peptide. The fluorescence signal intensities across three independent replicates on the same array were compared and the ratio cyclic to linear peptide of signal intensities was compared.
The combined cyclic and linear peptide libraries were synthesized starting with either the allyl ester (OAll) or t-butyl ester, respectively, of N-(2-nitrophenyl)propoxycarbonyl (NPPOC)-protected glutamate (γ-Glu) linked to the array surface through the carboxylic acid side chain. […]
Cy5 fluorescence intensity of the arrays was measured with an MS200 scanner (Roche NimbleGen, Madison, WI) at resolution 2 µm, wavelength 635 nm, gain 25%, and laser intensity 100%. […]

| Molecule | fluorescence signal intensity on cyclic discovery array |
| --- | --- |
| NC(=O)CC[C@@H]1NC(=O)[C@H](Cc2c[nH]c3ccccc23)NC(=O)[C@H]2CCCN2C(=O)[C@H](CCC(N)=O)NC(=O)[C@H](CC(N)=O)NC1=O [NQpWQ (head-to-tail cyclic)] (cyclo(NQ[dP]WQ)) | highest fluorescence signal intensity |

Reference: PMC5608804, “Stepwise Evolution Improves Identification of Diverse Peptides Binding to a Protein Target” (Scientific Reports, 2017)
